Data from ChEMBL document CHEMBL1201862, “PubChem BioAssay data set” (2004).
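Cultured in 96-well plates, cells were exposed to test compound for 48 hours across five concentrations. The concentration for 50% growth inhibition is given as GI50.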 Active and inactive are the calls of the source. Cut-off read from the data, not from the text of the source: active = GI50 up to about 1.1 µM and inactive = higher.

Experiments:
Assay in all cases: NCI anticancer screen, dose series, 48 h
[1] = test system: SF-268
[2] = test system: MDA-MB-231
[3] = test system: SNB-75
[4] = test system: K562
[5] = test system: U-251
[6] = test system: KM12
[7] = test system: IGROV-1
[8] = test system: A549
[9] = test system: DU-145
[10] = test system: HCC 2998
[11] = test system: MDA-N
[12] = test system: SK-MEL-28
[13] = test system: NCI/ADR-RES
[14] = test system: CCRF-CEM
[15] = test system: HCT-116
[16] = test system: OVCAR-8
[17] = test system: SN12C
[18] = test system: SF-539
[19] = test system: MDA-MB-435
[20] = test system: RPMI-8226

Measured: GI50

CC(C)c1ccc2nc3ccc(C(=O)NCCN4CCN(c5ccccc5)CC4)cn3c(=O)c2c1
inactive: [1] > 100 µM | [2] > 100 µM | [3] 1.89 µM | [4] 2.45 µM | [5] > 100 µM | [6] 20.2 µM | [7] > 100 µM | [8] > 100 µM | [9] > 100 µM | [10] 11.1 µM | [11] 4.6 µM | [12] 2.82 µM | [13] 3.57 µM | [14] 2.24 µM | [15] 5.66 µM | [16] 4.33 µM

Cn1c(=S)c2nc(SCCCc3ccccc3)[nH]c2n(C)c1=O
inactive: [1] 32.5 µM | [2] 42.5 µM | [3] 22.6 µM | [4] 19.7 µM | [5] 23.2 µM | [6] 19.5 µM | [7] 35.6 µM | [8] 13.7 µM | [17] 26.5 µM | [9] 36.1 µM | [18] 27.9 µM | [11] 21.8 µM | [12] 46.6 µM | [19] 23.2 µM | [13] 22.3 µM | [14] 6.59 µM | [15] 21.8 µM | [16] 28.2 µM | [20] 15.1 µM

CN(C)c1ccc(/C=C(\C#N)C(N)=C(C#N)C#N)cc1
inactive: [1] > 100 µM | [2] > 100 µM | [4] > 100 µM | [5] > 100 µM | [6] > 100 µM | [7] > 100 µM | [8] > 100 µM | [17] > 100 µM | [9] > 100 µM | [18] > 100 µM | [10] > 100 µM | [11] > 100 µM | [12] 80 µM | [19] > 100 µM | [13] > 100 µM | [14] > 100 µM | [15] > 100 µM | [16] > 100 µM

Cc1ccc(C2(C)CC/C(=N/N=C3/CCC(C)(c4ccc(C)c(C)c4)c4cc(C)c(C)cc43)c3cc(C)c(C)cc32)cc1C (centres undefined)
inactive: [1] > 100 µM | [2] > 100 µM | [3] > 100 µM | [4] > 100 µM | [5] > 100 µM | [6] > 100 µM | [7] > 100 µM | [8] > 100 µM | [17] > 100 µM | [9] > 100 µM | [18] > 100 µM | [11] > 100 µM | [12] > 100 µM | [19] > 100 µM | [13] > 100 µM | [15] > 100 µM | [16] > 100 µM | [20] > 100 µM

CC(C)(C)c1ccc(C(C)(C)C)c(N2C(=O)[C@@H]3[C@@H]4C=C[C@@H](C4)[C@]3(C)C2=O)c1
inactive: [1] 27.9 µM | [2] 28.4 µM | [4] 26.8 µM | [5] 18.7 µM | [6] 36.6 µM | [7] 18.6 µM | [8] 41 µM | [17] 20.1 µM | [9] 20.2 µM | [18] 51.5 µM | [10] 15.5 µM | [11] 14 µM | [12] 31.3 µM | [19] 15.5 µM | [13] 29.6 µM | [14] 7.38 µM | [15] 15.5 µM | [16] 14.6 µM | [20] 14.7 µM

CCOC(=O)c1cnc(-n2[nH]c3c(c2=O)CCCC3)[nH]c1=O
inactive: [1] 55.8 µM | [2] 57.1 µM | [4] 20.7 µM | [5] 39.7 µM | [6] 67.5 µM | [7] > 100 µM | [8] 63.1 µM | [17] 52.5 µM | [9] 57.9 µM | [18] 48.1 µM | [11] 86.1 µM | [12] 20.9 µM | [19] 47.8 µM | [13] 34.8 µM | [14] 28.8 µM | [15] 36.4 µM | [16] 37.5 µM | [20] 52.7 µM

COC(=O)[C@@]1(Cc2ccc(O)cc2)C[C@@H]2Cc3ccccc3N2N1
inactive: [1] > 100 µM | [2] 49.1 µM | [5] 57.1 µM | [6] > 100 µM | [7] 78 µM | [8] 81.7 µM | [17] 71 µM | [9] > 100 µM | [18] > 100 µM | [11] 44.8 µM | [12] > 100 µM | [19] > 100 µM | [13] 31.8 µM | [15] 65.3 µM | [16] 71.8 µM | [20] 30.5 µM

Clc1c(C(Cl)(Cl)Cl)nsc1N1CCCCC1
inactive: [1] 34 µM | [2] 23.8 µM | [3] 29 µM | [4] 19.1 µM | [5] 23.5 µM | [6] 20.7 µM | [7] 36 µM | [8] 33.9 µM | [17] 28 µM | [9] 28.4 µM | [18] 25.3 µM | [10] 22.2 µM | [11] 31 µM | [12] 33 µM | [19] 20.9 µM | [14] 16.5 µM | [15] 24.3 µM | [16] 27.4 µM | [20] 12.6 µM

C[C@]12CC[C@@H]3c4ccc(OCC(=O)O)cc4CC[C@H]3[C@@H]1CCC2=O
inactive: [1] > 100 µM | [2] > 100 µM | [3] > 100 µM | [5] > 100 µM | [6] > 100 µM | [7] > 100 µM | [8] > 100 µM | [17] > 100 µM | [9] > 100 µM | [18] > 100 µM | [11] > 100 µM | [12] > 100 µM | [19] > 100 µM | [13] > 100 µM | [14] 1.32 µM | [15] > 100 µM | [16] > 100 µM | [20] > 100 µM

CC(C)C(C/C=C1\CC(CO)(COC(=O)c2ccccc2)OC1=O)C(C)C (centres undefined)
inactive: [1] 19 µM | [2] 21.3 µM | [3] 15.3 µM | [4] 12 µM | [5] 19.1 µM | [6] 17.5 µM | [7] 20.7 µM | [8] 15.8 µM | [17] 17.2 µM | [10] 22.4 µM | [11] 21.2 µM | [12] 16.3 µM | [19] 84.9 µM | [13] 20.7 µM | [14] 12.1 µM | [15] 17.2 µM | [16] 19.2 µM

Cc1c(-c2ccccc2)[nH]n(C2=NCCN2)c1=O
inactive: [1] > 100 µM | [2] > 100 µM | [3] 30.4 µM | [4] > 100 µM | [5] > 100 µM | [6] > 100 µM | [7] 67.8 µM | [8] > 100 µM | [18] > 100 µM | [11] > 100 µM | [19] > 100 µM | [13] > 100 µM | [14] > 100 µM | [15] > 100 µM | [16] > 100 µM | [20] > 100 µM
